Consider 30 compounds from patent publication US12247010B2, “Tubulin inhibitors” (LIN BIOSCIENCE PTY LTD., priority 2017, dated 2025).

Bounds are passed on as bounds.

The assay has as its system U87MG cells. Briefly: Cytotoxicity assay (cell viability, CellTiter 96 Aqueous MTS). Type of assay: cell-based. As to conditions: Homo sapiens, U-87 MG, 72 h, 72 hours incubation, starting concentration 50 uM, 9 point half log dilution, average where tested repeatedly. On the procedure:
Example 3: Cytotoxicity Assay
U87MG cells were plated at a density of 7×10^3 cells/well and allowed to seed overnight. Cells were then treated with compounds from Table 1 or CMPD-1 (4-(2′-fluoro-[1,1′-biphenyl]-4-yl)-N-(4-hydroxyphenyl)butanamide as a positive control) were added to cells at a starting concentration of 50 uM, with a 9 point half log dilution, and incubated for 72 hours prior to viability determination. IC50 values were calculated from cell viability as measured using the CellTiter 96® Aqueous MTS reagent from Promega©, and the results are shown in Table 2.
Usually IC50 stands for the concentration that inhibits the measured activity by half. Read a high IC50 as weaker potency in that assay. Compound `Cn1cnc(C(=O)NCCCc2ccc(-c3ccccc3F)cc2)c1` [Compound 88, N-(3-(2′-fluoro-[1,1′-biphenyl]-4-yl)propyl)-1-methyl-1H-imidazole-4-carboxamide] came in with an IC50 greater than 5 µM.
`Cc1cc(C(=O)NCCCc2ccc(-c3ccccc3F)cc2)n(C)n1` [Compound 89, N-(3-(2′-fluoro-[1,1′-biphenyl]-4-yl)propyl)-1,3-dimethyl-1H-pyrazole-5-carboxamide] came in with an IC50 of less than 0.5 µM.
For the compound `Cc1cc(C(=O)NCCCc2ccc(-c3ccccc3F)cc2)no1` [Compound 90, N-(3-(2′-fluoro-[1,1′-biphenyl]-4-yl)propyl)-5-methylisoxazole-3-carboxamide], the IC50 was less than 0.5 µM.
The compound `O=C(NCCCc1ccc(-c2ccccc2F)cc1)c1ccc2c(c1)OCCO2` [Compound 91, N-(3-(2′-fluoro-[1,1′-biphenyl]-4-yl)propyl)-2,3-dihydrobenzo[b] [1,4]dioxine-6-carboxamide] returned an IC50 greater than 5 µM.
With `Cn1cnc2cc(C(=O)NCCCc3ccc(-c4ccccc4F)cc3)cnc21` [Compound 95, N-(3-(2′-fluoro-[1,1′-biphenyl]-4-yl)propyl)-3-methyl-3H-imidazo[4,5-b]pyridine-6-carboxamide] the figure was less than 0.5 µM; with `Cc1ccc(C(=O)NCCCc2ccc(-c3ccccc3F)cc2)c(C)n1` [Compound 99, N-(3-(2′-fluoro-[1,1′-biphenyl]-4-yl)propyl)-2,6-dimethylnicotinamide], 1 to 5 µM; with `Cc1nc2cc(C(=O)NCCCc3ccc(-c4ccccc4F)cc3)ccc2[nH]1` [Compound 100, N-(3-(2′-fluoro-[1,1′-biphenyl]-4-yl)propyl)-2-methyl-1H-benzo[d]imidazole-5-carboxamide], greater than 5 µM.
As to `O=C(Cc1noc2ccccc12)NCCCc1ccc(-c2ccccc2F)cc1` [Compound 102, 2-(benzo[d]isoxazol-3-yl)-N-(3-(2′-fluoro-[1,1′-biphenyl]-4-yl)propyl)acetamide], the IC50 was greater than 5 µM.
Compound `Nc1ccc(C(=O)NCCCc2ccc(-c3ccccc3F)cc2)cn1` [Compound 105, 6-amino-N-(3-(2′-fluoro-[1,1′-biphenyl]-4-yl)propyl)nicotinamide] came in with an IC50 of less than 0.5 µM.
As for `Cn1nccc1C(=O)NCCCc1ccc(-c2ccccc2F)cc1` [Compound 106, N-(3-(2′-fluoro-[1,1′-biphenyl]-4-yl)propyl)-1-methyl-1H-pyrazole-5-carboxamide], the IC50 was 0.501 to 1 µM.
With `O=C(NCCCc1ccc(-c2ccccc2F)cc1)C(F)(F)c1ccccc1` [Compound 108, 2,2-difluoro-N-(3-(2′-fluoro-[1,1′-biphenyl]-4-yl)propyl)-2-phenylacetamide] the figure was less than 0.5 µM; with `CCn1nc(C)cc1C(=O)NCCCc1ccc(-c2ccccc2F)cc1` [Compound 109, 1-ethyl-N-(3-(2′-fluoro-[1,1′-biphenyl]-4-yl)propyl)-3-methyl-1H-pyrazole-5-carboxamide], 0.501 to 1 µM; with `COc1ccc(CC(=O)NCCCc2ccc(-c3ccccc3F)cc2)cc1OC` [Compound 110, 2-(3,4-dimethoxyphenyl)-N-(3-(2′-fluoro-[1,1′-biphenyl]-4-yl)propyl)acetamide], greater than 5 µM.
For `O=C(NCCCc1ccc(-c2ccccc2F)cc1)c1ccno1` [Compound 111, N-(3-(2′-fluoro-[1,1′-biphenyl]-4-yl)propyl)isoxazole-5-carboxamide] the value was greater than 5 µM; for `CCOc1ccc(CC(=O)NCCCc2ccc(-c3ccccc3F)cc2)cc1` [Compound 112, 2-(4-ethoxyphenyl)-N-(3-(2′-fluoro-[1,1′-biphenyl]-4-yl)propyl)acetamide], 1 to 5 µM; for `O=C(NCCCc1ccc(-c2ccccc2F)cc1)c1cc[nH]n1` [Compound 113, N-(3-(2′-fluoro-[1,1′-biphenyl]-4-yl)propyl)-1H-pyrazole-3-carboxamide], greater than 5 µM.
For the compound `COc1ccc(CC(=O)NCCCc2ccc(-c3ccccc3F)cc2)c(OC)c1` [Compound 114, 2-(2,4-dimethoxyphenyl)-N-(3-(2′-fluoro-[1,1′-biphenyl]-4-yl)propyl)acetamide], the IC50 was greater than 5 µM.
In the case of `O=C(NCCCc1ccc(-c2ccccc2F)cc1)c1c[nH]c2ccccc12` [Compound 117, N-(3-(2′-fluoro-[1,1′-biphenyl]-4-yl)propyl)-1H-indole-3-carboxamide], the IC50 was greater than 5 µM.
`O=C(NCCCc1ccc(-c2ccccc2F)cc1)c1cc[nH]c1` [Compound 118, N-(3-(2′-fluoro-[1,1′-biphenyl]-4-yl)propyl)-1H-pyrrole-3-carboxamide] yielded an IC50 greater than 5 µM.
With `O=C(Cc1ccc(OC(F)(F)F)cc1)NCCCc1ccc(-c2ccccc2F)cc1` [Compound 120, N-(3-(2′-fluoro-[1,1′-biphenyl]-4-yl)propyl)-2-(4-(trifluoromethoxy)phenyl)acetamide] the figure was 0.501 to 1 µM.
Consider `CC(=O)Nc1ccc(C(=O)NCCCc2ccc(-c3ccccc3F)cc2)cn1` [Compound 121, 6-acetamido-N-(3-(2′-fluoro-[1,1′-biphenyl]-4-yl)propyl)nicotinamide], for which the half-maximal inhibitory concentration (IC50) was 1 to 5 µM.
With `O=C(NCCCc1ccc(-c2ccccc2F)cc1)c1ccc2nccnc2c1` [Compound 123, N-(3-(2′-fluoro-[1,1′-biphenyl]-4-yl)propyl)quinoxaline-6-carboxamide] the figure was greater than 5 µM; with `O=C(Cn1ccnc1)NCCCc1ccc(-c2ccccc2F)cc1` [Compound 124, N-(3-(2′-fluoro-[1,1′-biphenyl]-4-yl)propyl)-2-(1H-imidazol-1-yl)acetamide], greater than 5 µM; with `Cc1cc(C(=O)NCCCc2ccc(-c3ccccc3F)cc2)nn1C` [Compound 125, N-(3-(2′-fluoro-[1,1′-biphenyl]-4-yl)propyl)-1,5-dimethyl-1H-pyrazole-3-carboxamide], greater than 5 µM.
For `COc1ccc(CC(=O)NCCCc2ccc(-c3ccccc3F)cc2)cc1F` [Compound 126, 2-(3-fluoro-4-methoxyphenyl)-N-(3-(2′-fluoro-[1,1′-biphenyl]-4-yl)propyl)acetamide] the value was 1 to 5 µM; for `Cc1cc(C(=O)NCCCc2ccc(-c3ccccc3F)cc2)cc(C)c1O` [Compound 127, N-(3-(2′-fluoro-[1,1′-biphenyl]-4-yl)propyl)-4-hydroxy-3,5-dimethylbenzamide], greater than 5 µM.
In the case of `Cc1cc(C(=O)NCCCc2ccc(-c3ccccc3F)cc2)on1` [Compound 128, N-(3-(2′-fluoro-[1,1′-biphenyl]-4-yl)propyl)-3-methylisoxazole-5-carboxamide], the IC50 is 0.501 to 1 µM.
With `Cn1cncc1C(=O)NCCCc1ccc(-c2ccccc2F)cc1` [Compound 130, N-(3-(2′-fluoro-[1,1′-biphenyl]-4-yl)propyl)-1-methyl-1H-imidazole-5-carboxamide] the figure was greater than 5 µM; with `O=C(NCCCc1ccc(-c2ccccc2F)cc1)c1cnco1` [Compound 131, N-(3-(2′-fluoro-[1,1′-biphenyl]-4-yl)propyl)oxazole-5-carboxamide], greater than 5 µM; with `Cc1cnc(C(=O)NCCCc2ccc(-c3ccccc3F)cc2)s1` [Compound 132, N-(3-(2′-fluoro-[1,1′-biphenyl]-4-yl)propyl)-5-methylthiazole-2-carboxamide], greater than 5 µM.
